Experiment: Inhibition of 5alpha reductase from human prostatic hyperplasia

| Compound | IC50 |
| --- | --- |
| O=C(O[C@H]1[C@@H]2OC(=O)c3cc(O)c(O)c(O)c3-c3c4cc(c(O)c3O)Oc3c(cc(O)c(O)c3O)C(=O)O[C@H]3C(O)O[C@@H]5COC(=O)c6cc(O)c(O)c(O)c6-c6c(cc(c(O)c6O)Oc6c(cc(O)c(O)c6O)C(=O)O[C@H]1C(O)O[C@@H]2COC4=O)C(=O)O[C@H]5[C@@H]3OC(=O)c1cc(O)c(O)c(O)c1)c1cc(O)c(O)c(O)c1 (some centres not stated) [OENOTHEIN B] | 22 µM |
| CC(C)(C)NC(=O)[C@H]1CC[C@H]2[C@@H]3CC[C@H]4NC(=O)C=C[C@]4(C)[C@H]3CC[C@]12C [FINASTERIDE] | 0.01 µM |
